Assay results reported in patent US5834427A, “Casein phosphopeptide, casein containing same and process for the preparation thereof” (Han; Sang Kee, priority 1995, dated 1998).
No end group written: not given here.

Assay: Efficacy test for calcium solubilizing effect in vivo (soluble calcium in small intestine contents, atomic absorption spectrometer)
Design: species or system Wister Rats
Details: for Calcium concentration in the small intestine, Lower part / Calcium concentration in the small intestine, Total / Calcium concentration in the small intestine, Upper part: measured one hour after feeding, mean ± standard deviation
Procedure: Efficacy test for calcium solubilizing effect In vivo
Forty Wister Rats weighing about 120 g on an average were supplied with a controlled diet consisting of 24 wt % of crude proteins, 5 wt % of crude fats, 60 wt % of starches, 5 wt % of crude fibers, 5 wt % of minerals and 1 wt % of vitamins for a week and then starved for 24 hours. The rats were divided into 4 groups, each group including 10 rats.
Rats of the first group were supplied with a controlled diet including 10 wt % of the beta-casein H for 1.5 hours.
Rats of the second group were supplied with a controlled diet including 10 wt % of a conventional beta-casein for 1.5 hours.
Rats of the third group were supplied with a controlled diet including 1 wt % of the CPP in accordance with the present invention for 1.5 hours.
Rats of the fourth group were supplied with a controlled diet including 1 wt % of the conventional CPP for 1.5 hours.
All rats were allowed to freely have the controlled diets as much as they can. One hour after the completion of the above feeding, all rats were anesthetized, and the small intestines were excised therefrom. The small intestines were washed with a saline solution and then divided into two parts, i.e, the upper part and the lower part.
Thereafter, the contents in the small intestine were isolated, homogenized and centrifugated. A calcium in the supernant was measured three times by an atomic absorption spectrometer (Perkin Elmer Co.).

[1] = CPP feed, 3rd Group (inventive CPP) over 4th Group (conventional CPP)
[2] = CPP feed, controlled diet including 1 wt % CPP for 1.5 hours
[3] = casein feed, controlled diet including 10 wt % casein for 1.5 hours

Molecule	Improvement (%) of calcium concentration, Lower part [1]	Improvement (%) of calcium concentration, Total [1]	Improvement (%) of calcium concentration, Upper part [1]	Improvement (%) of calcium concentration, Total (CPP feed, 3rd Group (inventive CPP) over 4th Group (conventional CPP), listed as present CPP)	Calcium concentration in the small intestine, Lower part [2]	Calcium concentration in the small intestine, Total [2]	Calcium concentration in the small intestine, Upper part [2]	Calcium concentration in the small intestine, Total (CPP feed, controlled diet including 1 wt % CPP for 1.5 hours, listed as present CPP)	Calcium concentration in the small intestine, Lower part [3]	Calcium concentration in the small intestine, Total [3]	Calcium concentration in the small intestine, Upper part [3]
CPP in accordance with the present invention: casein phosphopeptide of SEQ. ID NO: 1, 28 amino acids, 25th Arg of the conventional CPP substituted by Cys (RELEELNVPGEIVESLSSSEESITCINK; also: phosphorylated, sites not given here)	29.8%	23.1%	7.0%	23%	51.02 ± 3.1 ppm	68.20 ± 2.5 ppm	17.18 ± 1.9 ppm	68.20 ppm			
conventional beta-casein: conventional beta-casein fed to the second group as comparison (protein, UniProt P02666 16-224, looked up) Beta-casein: RELEELNVPGEIVESLSSSEESITRINKKIEKFQSEEQQQTEDELQDKIHPFAQTQSLVYPFPGPIPNSLPQNIPPLTQTPVVVPPFLQPEVMGVSKVKEAMAPKHKEMPFPKYPVEPFTESQSLTLTDVENLHLPLPLLQSWMHQPHQPLPPTVMFPPQSVLSLSQSKVLPVPQKAVPYPQRDMPIQAFLLYQEPVLGPVRGPFPIIV									35.11 ± 2.3 ppm	50.60 ± 2.0 ppm	15.49 ± 1.7 ppm
